Source: PMC3723632, “A Multi-targeted Drug Candidate with Dual Anti-HIV and Anti-HSV Activity” (PLoS Pathogens, 2013)
Converted amounts (≈) assume the structure as drawn. Where two headings read alike, the source gives them in different places.

How the values were obtained:
HSV-2 (G) = test: HSV-2 infection of primary monocyte/macrophage (M/M) cultures; type: cell-based
HSV-1 and HSV-2 strains = test: HSV cytopathicity assay in HEL cell cultures, HSV-1 and HSV-2 stated together; type: cell-based
Experimental: Figure 2 Antiherpetic activity of test compounds in cell culture. Confluent HEL cell cultures were exposed to 100 TCID50 of clinical virus isolates [wild-type HSV-1 (panel A), wild-type HSV-2 (panel B), TK^− HSV-1 (panel C) and TK^− HSV-2 (panel D)] in the presence of drugs at different concentrations and incubated for 3 days at 37°C. Then, the cytopathicity was determined microscopically and the EC50 values determined. ^aEC50, 50% effective concentration or compound concentration required to reduce virus-induced cytopathicity (CPE) by 50%. Data shown are the means of at least two independent experiments. The HSV-1, HSV-2, HSV-1 TK^−, and HSV-2 TK^− clinical isolates have been described in reference 19, including the nature of the mutations in the TK gene of the acyclovir-resistant virus strains.

PBMC = test: Bio-Plex chemokine assay in PBMC cultures; type: cell-based, human; settings: for production of CC-chemokines: even at 500 µg/ml; for MIP-1β induced: 24 h
Experimental: (§1) Figure 9 Expression of CC-chemokines, CCR5 and chemokine mRNA expression in PBMC cultures after drug treatment. Panel A: Production of CC-chemokines by PBMC and the effects of adefovir, tenofovir, and PMEO-DAPym on the expression of the CCR5 receptor. Freshly isolated PBMCs from four healthy donors were incubated for 24 h with medium only (NC) or with adefovir, tenofovir, or PMEO-DAPym. We collected the supernatants and measured the concentrations of MIP-1α (▪), MIP-1β (▴), and RANTES (•) using a Bioplex system (Bio-Rad, Hercules, CA). Shown are means ± SEM. The cells were also collected, and the expression of the CCR5 receptor (□) was measured with flow cytometry using the PE-labeled CCR5 (clone 2D7) mAb; it is shown as percentage of control (± SEM) from four independent representative experiments. Panel B: Chemokine mRNA expression upon PMEO-DAPym exposure to PBMC. RT-PCR analysis of MIP-1α, MIP-1β, RANTES, and GAPDH (control) expression in PBMC treated with 100-µg/ml PMEO-DAPym for 4 h. Similar results were obtained with PBMC from three different donors. Results from one representative donor are shown.
Freshly isolated PBMC were cultured in the presence of adefovir, tenofovir, and PMEO-DAPym, and culture supernatants were collected after 24 h. We determined the cytokine production profile using the Bio-Plex 200 system (Bio-Rad, Hercules, CA) and a Bio-Plex Human chemokine assay according to the manufacturer's instructions and as described in detail earlier. The assay kit contains beads conjugated with mAbs specific for interferon-inducible protein-10 (IP-10), macrophage inflammatory protein-1α (MIP-α), and MIP-1β, and regulated on activation normal T-cell expressed and secreted (RANTES). For each chemokine, eight standards ranging from approximately 1.5 pg/ml to 32,000 pg/ml were constructed, and the minimum detectable dose was between 1.5 pg/ml and 8 pg/ml. Standard curves and the concentrations of chemokines within samples were generated with the Bio-Plex Manager 4.1 software.

CCR5 = test: Flow cytometry of CCR5 expression on PBMC; type: cell-based, human; settings: for CCR5 decrease / decrease of CCR5 expression on the cell surface: 24 h; for CCR5 expression, % of control: 72 h
Experimental: as §1
Figure 11 Expression of the HIV-1 coreceptor CCR5 on PBMCs after treatment with adefovir, tenofovir, or PMEO-DAPym. We treated PBMC with the drugs for 24 h and collected and analyzed the cells using flow cytometry. Cell surface expression of CD4 and the chemokine receptor CCR5 were measured with the fluorescein isothiocyanate-labeled CD4 specific mAb (clone SK3) and the phycoerythrin-labeled CCR5 (clone 2D7). The percentages of positive cells in each quadrant of the dot plots are given. The data shown are from one representative experiment that was independently repeated at least four times. TEXT PRINTED IN THE PICTURE: adefovir: 54% (500 μg/ml); 7% (500 μg/ml); 6% (500 μg/ml) | tenofovir: 50% (500 μg/ml); 6% (500 μg/ml); 5% (500 μg/ml) | PMEO-DAPym: 54% (500 μg/ml); 1% (500 μg/ml); 2% (500 μg/ml); 55% (100 μg/ml); 1% (100 μg/ml); 2% (100 μg/ml); 54% (20 μg/ml); 3% (20 μg/ml); 3% (20 μg/ml) DOUBTS OF THE COPYIST ABOUT THIS PICTURE: The percentages are quadrant labels in dot plots (axes: CD4 expression, CCR5 expression). No measure is printed beside them. For each plot they are listed in the order upper left, upper right, lower right. / The Control plot (51%, 8%, 6%) is left out because it is not a substance.
PBMC were cultured in the presence of adefovir, tenofovir, and PMEO-DAPym and incubated at 37°C in a humidified, 5% CO2-controlled atmosphere. The expression of cellular activation markers was measured after 3 days of culture. Briefly, after washing the cells with PBS containing 2% FCS, we incubated them with PerCP-conjugated anti-CD4 mAb (clone SK3) in combination with PE-conjugated anti-CD25, anti-CD69, or anti-HLA-DR mAbs for 30 min at room temperature. For aspecific background staining, cells were stained in parallel with Simultest Control IgG γ1/γ2a and PerCP-conjugated mouse IgG1. Finally, the cells were washed with PBS, fixed with 1% formaldehyde solution, and analyzed with a FACSCalibur (BD Biosciences, San Jose, CA); data were acquired with CellQuest software and further analyzed with the FLOWJO software (Tree Star, San Carlos, CA). […], and PBMC were incubated with PerCP-conjugated anti-CD4 mAb (clone SK3) in combination with APC-conjugated anti-CXCR4 mAb (clone 12G5) and PE-conjugated anti-CCR5 (clone 2D7) or anti-CXCR3 (clone 1C6). To evaluate the biological effects of the β-chemokines produced by drug-treated PBMC, freshly isolated PBMC were incubated for 1 h at 37°C with supernatants collected from PBMC cultures treated with compounds for 24 h. Then, cells were incubated with PerCP-conjugated anti-CD4 mAb (clone SK3) in combination with PE-conjugated anti-CCR5 mAb (clone 2D7) for 30 min at room temperature. […]

[1] = thirteen clinical wild-type HSV-1 and HSV-2 isolates, read-out: average EC50
[2] = wild-type laboratory HSV-1 and HSV-2 strains, range, read-out: EC50

Structure (SMILES)	Cytopathicity (CPE) on macrophages 6 days after infection % CPE (HSV-2 (G); 0.0032 µg/ml) [%]	Cytopathicity (CPE) on macrophages 6 days after infection % CPE (HSV-2 (G); 0.4 µg/ml) [%]	Cytopathicity (CPE) on macrophages 6 days after infection % CPE (HSV-2 (G); 2 µg/ml)	EC50 (HSV-1 and HSV-2 strains; [1]) [µg/mL]	EC50 (HSV-1 and HSV-2 strains; [2]) [µg/mL]	production of CC-chemokines (PBMC)	CCR5 decrease (CCR5)	EC50 (HSV-1 and HSV-2 strains; TK− HSV isolates, read-out: average EC50) [µg/mL]	effect on IP-10 levels (PBMC)	MIP-1β induced (PBMC; 20 µg/ml) [ng/mL]	MIP-1β induced (PBMC; 100 µg/ml) [ng/mL]	MIP-1β induced (PBMC; 500 µg/ml) [ng/mL]	decrease of CCR5 expression on the cell surface (CCR5; 20 µg/ml) [%]	decrease of CCR5 expression on the cell surface (CCR5; 100 µg/ml) [%]	decrease of CCR5 expression on the cell surface (CCR5; 500 µg/ml) [%]	CCR5 expression, % of control (CCR5; 20 µg/ml) [%]	CCR5 expression, % of control (CCR5; 100 µg/ml) [%]	CCR5 expression, % of control (CCR5; 500 µg/ml) [%]
C[C@H](Cn1cnc2c(N)ncnc21)OCP(=O)(O)O [Tenofovir, 9-(2-phosphonylmethoxypropyl)adenine]	85	40	30%	~130 (≈ 453 µM)	105 to 122 (≈ 366 to 425 µM)	Neither adefovir nor tenofovir induced notable production of CC-chemokines	Neither adefovir nor tenofovir induced a marked CCR5 decrease											
Nc1ncnc2c1ncn2CCOCP(=O)(O)O [Adefovir, 9-(2-phosphonylmethoxyethyl)adenine]	80	30	0–5%	~6 (≈ 22 µM)	2.6 to 6.3 (≈ 9.52 to 23.1 µM)	Neither adefovir nor tenofovir induced notable production of CC-chemokines	Neither adefovir nor tenofovir induced a marked CCR5 decrease											
Nc1cc(OCCOCP(=O)(O)O)nc(N)n1 [PMEO-DAPym, 6-phosphonylmethoxyethoxy-2,4-diaminopyrimidine]	85	35	0–15%	~2 (≈ 7.57 µM)	2.6 to 6.3 (≈ 9.84 to 23.8 µM)			2.4 (≈ 9.08 µM)	did not affect IP-10 levels	7.5	20	27	60	≥ 75	≥ 75	60	38	10
